The values below come from patent US20260062387A1, “SALT-INDUCIBLE KINASE INHIBITOR COMPOUND AND PHARMACEUTICAL COMPOSITION INCLUDING THE SAME” (MITSUBISHI TANABE PHARMA CORPORATION, priority 2023, published 2026).

Holding throughout (type): biochemical
In one experiment the target is GST-tagged SIK1 (Homo sapiens (Human), UniProt P57059). The experiment can be described thus: SIK1 inhibition test (ADP-Glo Max Assay). As to conditions: enzyme 20 nM, AMARA Peptide 200 μM, ATP 1 mM, 2 hours room temperature. The method, boiled down: (§1)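 ADP formed was detected by luciferase luminescence after a 2 h room-temperature reaction with 1 mM ATP, 5 mM MgCl2 and AMARA peptide at 200 μM (SIK1, SIK2) or 100 μM (SIK3). Final GST-enzyme levels were 20 nM SIK1, 3 nM SIK2 and 100 nM SIK3. IC50 came from 16-point concentration-response data.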
A general note: In ADP-Glo the light output rises with the ADP produced.

For another experiment, the target named is GST-tagged SIK2 (Homo sapiens (Human), UniProt Q9H0K1). The experiment in a line: SIK2 inhibition test (ADP-Glo Max Assay). As to conditions: enzyme 3 nM, AMARA Peptide 200 μM, ATP 1 mM, 2 hours room temperature. The procedure, abridged: as §1
The next experiment concerns the target GST-tagged SIK3 (Homo sapiens (Human), UniProt Q9Y2K2). The experiment in a line: SIK3 inhibition test (ADP-Glo Max Assay). As to conditions: enzyme 100 nM, AMARA Peptide 100 μM, ATP 1 mM, 2 hours room temperature. The procedure, abridged: as §1

GST-tagged SIK2, sequence (Q9H0K1 whole entry): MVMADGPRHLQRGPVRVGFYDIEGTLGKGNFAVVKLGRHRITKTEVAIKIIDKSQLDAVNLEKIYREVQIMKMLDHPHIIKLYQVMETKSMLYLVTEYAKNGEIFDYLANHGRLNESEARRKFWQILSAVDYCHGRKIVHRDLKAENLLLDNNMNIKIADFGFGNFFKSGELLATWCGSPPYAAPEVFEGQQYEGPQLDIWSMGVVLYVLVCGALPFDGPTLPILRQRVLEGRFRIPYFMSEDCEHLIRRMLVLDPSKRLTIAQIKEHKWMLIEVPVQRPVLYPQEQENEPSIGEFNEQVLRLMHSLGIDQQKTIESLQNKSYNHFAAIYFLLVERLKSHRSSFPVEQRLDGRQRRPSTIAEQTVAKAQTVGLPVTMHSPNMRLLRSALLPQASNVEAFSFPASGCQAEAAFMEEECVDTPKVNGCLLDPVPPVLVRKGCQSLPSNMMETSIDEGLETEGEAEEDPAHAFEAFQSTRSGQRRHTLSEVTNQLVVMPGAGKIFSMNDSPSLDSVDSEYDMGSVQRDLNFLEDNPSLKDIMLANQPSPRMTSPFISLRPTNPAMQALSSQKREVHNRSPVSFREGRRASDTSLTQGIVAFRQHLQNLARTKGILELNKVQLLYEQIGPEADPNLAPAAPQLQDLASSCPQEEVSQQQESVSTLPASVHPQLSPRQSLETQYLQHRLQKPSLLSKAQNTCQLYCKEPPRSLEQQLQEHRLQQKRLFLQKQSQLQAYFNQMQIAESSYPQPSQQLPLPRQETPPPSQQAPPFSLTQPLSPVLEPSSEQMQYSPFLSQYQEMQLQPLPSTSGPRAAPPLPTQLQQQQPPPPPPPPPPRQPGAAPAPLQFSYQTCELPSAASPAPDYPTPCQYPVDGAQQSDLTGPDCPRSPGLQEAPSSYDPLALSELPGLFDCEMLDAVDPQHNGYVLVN
GST-tagged SIK1, sequence (P57059 whole entry): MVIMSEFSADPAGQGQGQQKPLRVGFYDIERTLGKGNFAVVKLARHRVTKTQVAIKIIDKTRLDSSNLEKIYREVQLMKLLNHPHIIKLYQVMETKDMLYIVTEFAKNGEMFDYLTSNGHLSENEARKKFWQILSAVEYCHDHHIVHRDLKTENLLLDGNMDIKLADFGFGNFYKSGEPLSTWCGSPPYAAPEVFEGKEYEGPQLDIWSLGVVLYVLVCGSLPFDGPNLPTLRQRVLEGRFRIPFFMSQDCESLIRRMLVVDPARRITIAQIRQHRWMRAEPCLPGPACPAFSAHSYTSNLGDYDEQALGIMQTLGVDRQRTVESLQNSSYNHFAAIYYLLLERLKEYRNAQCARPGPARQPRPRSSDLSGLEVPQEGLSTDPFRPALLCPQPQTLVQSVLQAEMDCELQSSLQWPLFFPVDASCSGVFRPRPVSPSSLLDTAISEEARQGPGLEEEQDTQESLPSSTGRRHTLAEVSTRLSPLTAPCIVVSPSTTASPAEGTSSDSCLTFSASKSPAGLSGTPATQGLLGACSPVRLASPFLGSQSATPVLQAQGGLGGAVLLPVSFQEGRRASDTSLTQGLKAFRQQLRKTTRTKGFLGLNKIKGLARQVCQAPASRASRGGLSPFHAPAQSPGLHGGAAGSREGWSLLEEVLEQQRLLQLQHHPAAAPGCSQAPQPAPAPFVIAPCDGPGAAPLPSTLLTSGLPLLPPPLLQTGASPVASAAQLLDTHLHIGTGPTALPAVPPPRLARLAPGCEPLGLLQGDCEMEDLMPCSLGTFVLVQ
GST-tagged SIK3, sequence (Q9Y2K2 whole entry): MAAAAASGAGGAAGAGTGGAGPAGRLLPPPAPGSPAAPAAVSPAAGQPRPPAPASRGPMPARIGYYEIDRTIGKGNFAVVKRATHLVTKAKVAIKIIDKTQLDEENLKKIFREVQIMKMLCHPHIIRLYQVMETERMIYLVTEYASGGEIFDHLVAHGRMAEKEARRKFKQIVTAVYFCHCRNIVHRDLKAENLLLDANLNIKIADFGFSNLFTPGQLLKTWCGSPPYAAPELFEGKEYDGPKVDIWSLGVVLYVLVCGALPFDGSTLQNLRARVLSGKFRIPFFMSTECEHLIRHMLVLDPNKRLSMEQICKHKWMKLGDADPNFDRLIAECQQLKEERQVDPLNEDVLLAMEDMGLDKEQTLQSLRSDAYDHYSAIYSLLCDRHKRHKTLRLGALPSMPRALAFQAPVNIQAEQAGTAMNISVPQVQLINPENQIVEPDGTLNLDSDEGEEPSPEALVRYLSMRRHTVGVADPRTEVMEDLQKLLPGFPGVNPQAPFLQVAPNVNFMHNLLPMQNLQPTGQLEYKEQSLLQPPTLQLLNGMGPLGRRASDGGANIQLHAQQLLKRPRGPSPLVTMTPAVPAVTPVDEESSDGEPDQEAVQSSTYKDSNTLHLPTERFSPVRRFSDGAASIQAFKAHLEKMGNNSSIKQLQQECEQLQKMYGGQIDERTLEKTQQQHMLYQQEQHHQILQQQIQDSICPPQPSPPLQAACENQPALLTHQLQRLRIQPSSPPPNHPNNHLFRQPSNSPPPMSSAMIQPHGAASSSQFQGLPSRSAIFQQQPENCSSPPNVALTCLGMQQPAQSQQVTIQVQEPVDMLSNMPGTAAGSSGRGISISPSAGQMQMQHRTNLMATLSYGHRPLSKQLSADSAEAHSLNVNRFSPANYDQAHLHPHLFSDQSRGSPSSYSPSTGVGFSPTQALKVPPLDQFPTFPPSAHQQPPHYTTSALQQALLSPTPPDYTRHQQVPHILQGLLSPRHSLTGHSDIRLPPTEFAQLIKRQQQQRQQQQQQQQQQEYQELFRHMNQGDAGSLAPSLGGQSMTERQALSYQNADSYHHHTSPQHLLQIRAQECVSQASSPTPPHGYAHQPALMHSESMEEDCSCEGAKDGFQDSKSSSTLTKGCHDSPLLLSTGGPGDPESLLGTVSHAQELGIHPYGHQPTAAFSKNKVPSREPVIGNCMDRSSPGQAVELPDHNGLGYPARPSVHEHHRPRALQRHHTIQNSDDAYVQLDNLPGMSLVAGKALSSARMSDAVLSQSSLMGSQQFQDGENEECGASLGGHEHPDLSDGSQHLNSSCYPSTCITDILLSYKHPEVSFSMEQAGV

As usually defined, the IC50 is the concentration needed to halve the response being measured. Higher therefore signals weaker potency. On to `COc1cc(-n2cnc3cc(-c4cnn(C)c4)ccc32)cc(OC)c1C(=O)NCC(F)F` [Comparative Example 2, reference compound], for which the IC50 at GST-tagged SIK1 worked out at 1000 nM; at GST-tagged SIK2, 86.4 nM; against GST-tagged SIK3, 39.7 nM.

Consider `COCCn1cc(-c2cc(C#N)c3c(-c4cc(OC)c5c(c4)C(C)(C)CNC5=O)n(C)nc3c2)cn1` [Example 143, 3-(8-methoxy-4,4-dimethyl-1-oxo-2,3-dihydroisoquinolin-6-yl)-6-[1-(2-methoxyethyl)pyrazol-4-yl]-2-methylindazole-4-carbonitrile], for which the IC50 was 10.5 nM at GST-tagged SIK1, 2.2 nM against GST-tagged SIK2 and 8.6 nM at GST-tagged SIK3.

In the case of `COc1cc(-c2c3c(C#N)cc(-c4cnn(CCN5CC(F)(F)C5)c4)cc3nn2C)cc(OC(F)F)c1C(=O)NC[C@@H]1CC1(F)F` (stereo in doubt) [Example 108, 4-[4-cyano-6-[1-[2-(3,3-difluoroazetidin-1-yl)ethyl]pyrazol-4-yl]-2-methylindazol-3-yl]-2-(difluoromethoxy)-6-methoxy-N-[[rel-(1R)-2,2-difluorocyclopropyl]methyl]benzamide], the IC50 turned out to be 16.8 nM on GST-tagged SIK1, 6.5 nM against GST-tagged SIK2 and 2.4 nM against GST-tagged SIK3.

For the compound `COCCn1cc(-c2cc(OC)c3c(-c4cc(OC(F)F)c5c(c4)[C@@H](C)CNC5=O)n(C)nc3c2)cn1` (single isomer, unassigned) [Example 177], the IC50 was 5.4 nM against GST-tagged SIK1, 3.1 nM at GST-tagged SIK2 and 10.1 nM against GST-tagged SIK3.

Consider `COc1cc(-c2c3c(C#N)cc(-c4cnn(Cc5ncco5)c4)cc3nn2C)cc(OC(F)F)c1C(=O)NCC1(F)CC1` [Example 75], for which the IC50 was 14.8 nM against GST-tagged SIK1, 2.7 nM against GST-tagged SIK2 and 13.3 nM on GST-tagged SIK3.

Regarding `COCCn1cc(-c2cc(OC)c3c(-c4cc(OC(F)F)c5c(c4)[C@@H](C)CNC5=O)n(C)nc3c2)cn1` (single isomer, unassigned) [Example 178], the IC50 against GST-tagged SIK1 was 10.1 nM; against GST-tagged SIK2, 4.7 nM; at GST-tagged SIK3 it was 15.6 nM.

With `COc1cc(-c2c3c(C#N)cc(-c4cnn(C(C)C)c4)cc3nn2C)cc(OC(F)F)c1C(=O)N[C@@H]1C[C@@H]1F` [Example 33, 4-[4-cyano-2-methyl-6-(1-propan-2-ylpyrazol-4-yl)indazol-3-yl]-2-(difluoromethoxy)-N-[(1R,2S)-2-fluorocyclopropyl]-6-methoxybenzamide], the IC50 on GST-tagged SIK1 was 4.6 nM; at GST-tagged SIK2, 2.6 nM; against GST-tagged SIK3 it was 8.5 nM.

Consider `COc1cc(-c2c3c(OC)cc(-c4cnn(C)c4)cc3nn2C)cc(OC(F)F)c1C(=O)N1CC(O)(C(F)(F)F)C1` [Example 13, [2-(difluoromethoxy)-6-methoxy-4-[4-methoxy-2-methyl-6-(1-methylpyrazol-4-yl)indazol-3-yl]phenyl]-[3-hydroxy-3-(trifluoromethyl)azetidin-1-yl]methanone], for which the IC50 is 4.6 nM at GST-tagged SIK1, 7.2 nM against GST-tagged SIK2 and 3.8 nM at GST-tagged SIK3.

Consider `COc1cc(-c2c3c(C#N)cc(-c4cnn(CC(F)(F)F)c4)cc3nn2C)cc2c1C(=O)NCC2(C)C` [Example 146, 3-(8-methoxy-4,4-dimethyl-1-oxo-2,3-dihydroisoquinolin-6-yl)-2-methyl-6-[1-(2,2,2-trifluoroethyl)pyrazol-4-yl]indazole-4-carbonitrile], for which the IC50 came to 12.6 nM against GST-tagged SIK1, 3.6 nM at GST-tagged SIK2 and 7.8 nM against GST-tagged SIK3.

As to `COc1cc(-c2c3c(C#N)cc(-c4cnn(CC(=O)N5CCCC5)c4)cc3nn2C)cc(OC(F)F)c1C(=O)NCC1(F)CC1` [Example 100], the IC50 against GST-tagged SIK1 worked out at 15.5 nM; on GST-tagged SIK2 it was 7.3 nM; against GST-tagged SIK3, 5.7 nM.
